Assay [1] deals with T1, Alpha-1A adrenergic receptor (Oryctolagus cuniculus, UniProt O02824).
T1 sequence (O02824 whole entry): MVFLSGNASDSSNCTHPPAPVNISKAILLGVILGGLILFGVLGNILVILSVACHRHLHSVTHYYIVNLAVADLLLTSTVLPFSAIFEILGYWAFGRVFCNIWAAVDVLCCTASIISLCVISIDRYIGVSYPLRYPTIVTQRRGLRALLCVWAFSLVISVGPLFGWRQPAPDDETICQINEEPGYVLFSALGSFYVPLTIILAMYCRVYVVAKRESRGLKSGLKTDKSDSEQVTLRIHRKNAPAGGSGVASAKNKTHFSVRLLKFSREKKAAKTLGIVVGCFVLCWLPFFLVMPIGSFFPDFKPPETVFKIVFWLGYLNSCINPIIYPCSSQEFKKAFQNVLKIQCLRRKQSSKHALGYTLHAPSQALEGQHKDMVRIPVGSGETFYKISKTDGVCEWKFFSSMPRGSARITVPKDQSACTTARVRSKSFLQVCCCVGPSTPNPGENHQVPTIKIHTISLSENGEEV

In assay [2] the target is T2, Alpha-2B adrenergic receptor (Oryctolagus cuniculus, UniProt O77830).
T2 sequence (O77830 whole entry): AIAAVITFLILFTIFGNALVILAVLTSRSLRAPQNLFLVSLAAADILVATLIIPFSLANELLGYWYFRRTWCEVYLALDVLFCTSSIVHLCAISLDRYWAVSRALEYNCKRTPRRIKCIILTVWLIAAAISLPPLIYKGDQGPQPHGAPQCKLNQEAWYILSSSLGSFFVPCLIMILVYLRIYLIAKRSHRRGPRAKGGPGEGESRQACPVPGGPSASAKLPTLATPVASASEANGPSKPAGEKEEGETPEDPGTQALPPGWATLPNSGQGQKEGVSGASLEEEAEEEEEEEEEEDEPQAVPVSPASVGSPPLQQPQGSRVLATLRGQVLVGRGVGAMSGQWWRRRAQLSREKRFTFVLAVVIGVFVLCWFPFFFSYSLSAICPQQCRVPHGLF

For assay [3], the target named is T3, Alpha-1A adrenergic receptor (Canis lupus familiaris, UniProt O77621).
T3 sequence (O77621 whole entry): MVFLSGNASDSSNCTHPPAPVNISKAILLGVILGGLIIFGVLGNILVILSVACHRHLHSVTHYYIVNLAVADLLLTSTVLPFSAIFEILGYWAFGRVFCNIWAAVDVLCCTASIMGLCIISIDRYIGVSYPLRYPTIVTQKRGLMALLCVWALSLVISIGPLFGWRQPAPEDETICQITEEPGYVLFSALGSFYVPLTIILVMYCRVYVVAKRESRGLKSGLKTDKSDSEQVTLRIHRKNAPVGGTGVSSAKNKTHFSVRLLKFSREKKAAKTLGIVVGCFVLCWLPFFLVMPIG

Assay [4] concerns the target T4, Alpha-2B adrenergic receptor (Canis lupus familiaris, UniProt Q2MDQ0).
T4 sequence (Q2MDQ0 whole entry): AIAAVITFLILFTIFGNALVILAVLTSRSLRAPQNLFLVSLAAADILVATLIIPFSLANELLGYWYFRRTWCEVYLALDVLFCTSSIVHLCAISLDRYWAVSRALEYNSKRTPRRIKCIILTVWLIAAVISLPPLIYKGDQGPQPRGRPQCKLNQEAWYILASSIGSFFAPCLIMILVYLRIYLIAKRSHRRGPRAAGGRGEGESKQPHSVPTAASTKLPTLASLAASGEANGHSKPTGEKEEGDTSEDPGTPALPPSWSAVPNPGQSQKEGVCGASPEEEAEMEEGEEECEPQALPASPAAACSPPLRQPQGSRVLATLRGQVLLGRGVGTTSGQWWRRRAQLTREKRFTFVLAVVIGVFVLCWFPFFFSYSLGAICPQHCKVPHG

In assay [5] the target is T5, Alpha-2A adrenergic receptor (Cavia porcellus, UniProt Q60474).
T5 sequence (Q60474 whole entry): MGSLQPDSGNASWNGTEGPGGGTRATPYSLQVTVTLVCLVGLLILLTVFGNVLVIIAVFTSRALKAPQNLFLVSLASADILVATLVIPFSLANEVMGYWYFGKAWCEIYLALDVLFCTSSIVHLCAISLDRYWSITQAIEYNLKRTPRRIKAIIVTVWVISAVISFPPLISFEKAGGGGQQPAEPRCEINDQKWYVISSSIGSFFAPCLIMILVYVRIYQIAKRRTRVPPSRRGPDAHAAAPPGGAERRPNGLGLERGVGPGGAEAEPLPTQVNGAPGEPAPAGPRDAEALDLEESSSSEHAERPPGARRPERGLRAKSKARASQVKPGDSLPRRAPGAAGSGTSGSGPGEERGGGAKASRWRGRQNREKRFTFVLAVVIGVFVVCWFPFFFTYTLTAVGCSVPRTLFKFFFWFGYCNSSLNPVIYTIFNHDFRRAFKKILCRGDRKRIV

Assay [6] has as its target T6, Alpha-1D adrenergic receptor (Mus musculus, UniProt P97714).
T6 sequence (P97714 whole entry): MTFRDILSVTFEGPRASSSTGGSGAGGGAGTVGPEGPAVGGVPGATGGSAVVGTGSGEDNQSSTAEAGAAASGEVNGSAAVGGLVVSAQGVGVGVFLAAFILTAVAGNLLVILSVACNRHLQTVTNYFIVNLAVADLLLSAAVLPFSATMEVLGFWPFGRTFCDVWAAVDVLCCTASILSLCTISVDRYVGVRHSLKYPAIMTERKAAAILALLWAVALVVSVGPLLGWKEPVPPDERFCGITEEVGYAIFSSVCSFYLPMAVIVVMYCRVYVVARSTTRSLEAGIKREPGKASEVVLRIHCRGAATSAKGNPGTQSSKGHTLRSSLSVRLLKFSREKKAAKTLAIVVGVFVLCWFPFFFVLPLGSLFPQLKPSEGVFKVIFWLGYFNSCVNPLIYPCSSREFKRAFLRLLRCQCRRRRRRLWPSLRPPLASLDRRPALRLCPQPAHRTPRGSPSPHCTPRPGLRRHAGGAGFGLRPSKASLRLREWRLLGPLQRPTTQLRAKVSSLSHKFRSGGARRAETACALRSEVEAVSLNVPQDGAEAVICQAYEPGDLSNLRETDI

Several values for one entry are separate records, joined by “and”; a condition that tells them apart may be missing. Equal entries are not always repeated. Structures can show the parent of a compound that is named as a salt.

For the compound `COC(=O)[C@@H]1[C@H]2C[C@H]3c4[nH]c5ccccc5c4CCN3C[C@@H]2CC[C@@H]1O` [yohimbic acid methyl ester], the Ki in assay [1] is 1100 nM and 275 nM; in assay [2], 21 nM.

As for `COC(=O)[C@H]1[C@H]2C[C@H]3c4[nH]c5ccccc5c4CCN3C[C@H]2CC[C@@H]1O` [RAUWOLSCINE HYDROCHLORIDE], the Ki in assay [3] is 234 nM; in assay [1] it was 1800 nM and 4000 nM and 1300 nM.

For the compound `CN1CCc2cccc(Cl)c2CC1` [MLS002172470], the inhibition constant Ki was determined as 1100 nM in assay [3], 900 nM in assay [1], 42 nM in assay [4] and 13 nM in assay [5].

On to `c1ccc2c(c1)OCC(C1=NCCN1)O2` (stereo not given), for which the Ki was found to be 12 nM in assay [6] and 2300 nM in assay [1].

As usually defined, the Ki is the dissociation constant of the complex between target and ligand, obtained from inhibition or displacement.

The record behind these values is BindingDB's records for PubMed 2867217 (Smith Kline & French Laboratories, 1986).
